According to paper PMC5278707, “Structure-Activity Relationships of a Series of Echinocandins and the Discovery of CD101, a Highly Stable and Soluble Echinocandin with Distinctive Pharmacokinetic Properties” (Antimicrobial Agents and Chemotherapy, 2017):
In brackets after ≈: the same amount, converted by molar mass. Read-outs that look alike come from different tables or passages of the source. *1 amine or outer side, *2 acyl side, *3 side chain or, on linkers, in order; H or OH if unused. Where a SMILES comes first, the peptide text is derived from it. Bridges are numbered along the chain shown (N, C = ends). [ ]: non-standard residue; d: D form. The star is where a group is joined. Orn(4R-OH,5R-OCH2CH2NMe3+) = C[N+](C)(C)CCO[C@@H](N[*:3])[C@H](O)C[C@H](N[*:1])C(=O)[*:2]; pTerphenylCO(4''-OnC5H11) = CCCCCOc1ccc(-c2ccc(-c3ccc(C(=O)*)cc3)cc2)cc1; Orn(4R-OH,5R-OH) = O=C([C@H](C[C@@H](O)[C@@H](O)N[*:3])N[*:1])[*:2]; hTyr(3S-OH,4S-OH) = N[C@H](C(=O)O)[C@H](O)[C@@H](O)c1ccc(O)cc1; Pro(3S-OH,4S-Me) = C[C@H]1CN[C@H](C(=O)O)[C@H]1O; Hyp = O=C(O)[C@@H]1C[C@@H](O)CN1

Legend:
[1] = test system: Candida albicans R303; test: mouse model of disseminated candidiasis, fungal burden in kidneys; format: in vivo; conditions: kidneys at 24 h; for reductions in fungal burden vs infected control (statistical significance): neutropenic CD-1 mice, 0.5, 1.5 or 4.5 mg/kg 2 h after inoculation
Method: Candida albicans R303 was grown on Sabouraud dextrose agar (SDA) plates for 24 h at 35°C. Colonies were transferred to phosphate-buffered saline (PBS) and diluted to 3.8 × 10^5 CFU/ml. Female CD-1 mice (Charles River Laboratories, Portage, MI) were rendered neutropenic via injection with cyclophosphamide (150 mg/kg) 5 days and 2 days prior to inoculation. Each animal was infected by injecting 0.1 ml of inoculum into the tail vein. In the treatment groups, animals received 0.5, 1.5, or 4.5 mg/kg of test article 2 h after inoculation. Two groups of untreated, infected controls were used to evaluate fungal burden: at 2 h when test articles were administered in the treatment groups and at 24 h when the treatment groups were sacrificed. Kidneys were harvested at 2 h in one untreated control group and at 24 h in all other groups. The kidneys were homogenized in 2 ml of sterile phosphate-buffered saline, and 0.1-ml aliquots were spread on SDA plates and incubated at 35°C overnight. Fungal burden was determined based on the log10 C. albicans CFU counts from paired kidneys. Data were analyzed using a one-way analysis of variance (ANOVA) and the Dunnett multiple comparisons test comparing the test articles to the infected control group (GraphPad InStat version 3.1; GraphPad Software, San Diego, CA).

[2] = single-dose pharmacokinetics in beagle dogs; conditions: male, dog, in vivo, iv
Method: Four male, nonnaive beagle dogs received a single i.v. infusion (1.4 mg/kg) of test article over 10 min via a catheter placed in the cephalic vein. Blood draws (1.0 ml) were taken at 0.083, 0.33, 0.75, 1.5, 4.5, 12, 24, and 48 h. An additional blood draw at 72 h was obtained for CD101. Blood draws were taken from the jugular vein and were collected into K3 EDTA tubes. Following blood collection, the samples were immediately inverted several times and were held on wet ice pending centrifugation. The samples were centrifuged within ∼30 min of collection under refrigeration (∼5°C for ∼10 min at ∼2,000 g) to obtain plasma. The plasma samples were frozen immediately on dry ice after separation and were stored at approximately −70°C until analysis. Levels of test article in the plasma samples were measured by quantitative liquid chromatography-tandem mass spectrometry (LC-MS/MS) analysis compared to a calibration curve and an internal standard. Pharmacokinetic parameters were calculated from the plasma concentration-time data using standard noncompartmental methods and utilizing WinNonlin analysis software.

[3] = test system: Candida albicans ATCC 90028; test: CLSI broth microdilution (M27-A3) MIC; format: cell-based; conditions: 50% reduction in growth
Method: (§1) All yeast and mold isolates were obtained from the American Type Culture Collection (ATCC). Isolates were plated on an agar medium to verify purity, and single colonies were picked. Aspergillus isolates were resubcultured on potato dextrose slants and incubated for 7 days at 35°C. Candida isolates were streaked on SDA plates and incubated for 24 h at 35°C. RPMI 1640 medium (HyClone Laboratories, Logan, UT) and the inoculum for each organism were prepared according to Clinical and Laboratory Standards Institute (CLSI) guidelines ([27][–][29]). Stock solutions for all test articles were prepared in 100% dimethyl sulfoxide (DMSO). Susceptibility testing was performed using CLSI broth microdilution methods for Candida (M27-A3) and Aspergillus (M38-A2). Amphotericin B was tested at a range of 0.06 to 64 μg/ml; all other antifungal agents were tested at 0.015 to 16 μg/ml. Plates were incubated at 35°C and were read from the bottom using a plate viewer after 24 and 48 h for Candida and after 48 h for Aspergillus. MIC values are reported as the lowest drug concentration to yield a 50% reduction in the growth of Candida species tested compared to the control well. Minimum effective concentration (MEC) values are reported as the lowest drug concentration to yield the stunted hyphal growth of Aspergillus species tested compared to that of the control well.

[4] = test system: Candida glabrata ATCC 90030; test: CLSI broth microdilution (M27-A3) MIC; format: cell-based; conditions: Nakaseomyces glabratus, ATCC90030, 50% reduction in growth, read-out: MIC
Method: as §1

[5] = test system: Candida guilliermondii ATCC 34134; test: CLSI broth microdilution (M27-A3) MIC; format: cell-based; conditions: Meyerozyma guilliermondii, ATCC34134, 50% reduction in growth
Method: as §1

[6] = test system: Candida krusei ATCC 14243; test: CLSI broth microdilution (M27-A3) MIC; format: cell-based; conditions: Pichia kudriavzevii, ATCC14243, 50% reduction in growth
Method: as §1

[7] = test system: Candida lusitaniae ATCC 34134; test: CLSI broth microdilution (M27-A3) MIC; format: cell-based; conditions: Clavispora lusitaniae
Method: as §1

[8] = test system: Candida parapsilosis ATCC 22019; test: CLSI broth microdilution (M27-A3) MIC; format: cell-based; conditions: Lodderomyces parapsilosis, ATCC22019, 50% reduction in growth
Method: as §1

[9] = test system: Candida tropicalis ATCC 90874; test: CLSI broth microdilution (M27-A3) MIC; format: cell-based; conditions: 50% reduction in growth
Method: as §1

[10] = test system: Aspergillus candidus ATCC 13686; test: CLSI broth microdilution (M38-A2) MEC/MIC; format: cell-based; conditions: 48 h, stunted hyphal growth
Method: as §1

[11] = test system: Aspergillus flavus ATCC 22546; test: CLSI broth microdilution (M38-A2) MEC/MIC; format: cell-based; conditions: 48 h, stunted hyphal growth
Method: as §1

[12] = test system: Aspergillus fumigatus ATCC 204305; test: CLSI broth microdilution (M38-A2) MEC/MIC; format: cell-based; conditions: 48 h, stunted hyphal growth
Method: as §1

[13] = test system: Aspergillus fumigatus ATCC MYA-3626; test: CLSI broth microdilution (M38-A2) MEC/MIC; format: cell-based; conditions: 48 h, stunted hyphal growth
Method: as §1

[14] = test system: Aspergillus niger ATCC 16888; test: CLSI broth microdilution (M38-A2) MEC/MIC; format: cell-based; conditions: 48 h, stunted hyphal growth
Method: as §1

[15] = test system: Aspergillus ochraceus ATCC 96919; test: CLSI broth microdilution (M38-A2) MEC/MIC; format: cell-based; conditions: 48 h, stunted hyphal growth
Method: as §1

[16] = test system: Aspergillus clavatus ATCC 10058; test: CLSI broth microdilution (M38-A2) MEC/MIC; format: cell-based; conditions: read at 68 h, stunted hyphal growth
Method: as §1, with “Plates were incubated at 35°C and were read from the bottom using a plate viewer after 24 and 48 h for Candida and after 48 h for Aspergillus.” left out

[17] = test system: Aspergillus spp.; test: CLSI broth microdilution (M38-A2) MEC, whole panel; format: cell-based; conditions: 48 h, summary of Table 3
Method: as §1

[18] = humans, clinical trials ref 22; cited from earlier work
[19] = ATCC34134, 24 h, 50% reduction in growth, read-out: MIC
[20] = ATCC34134, 48 h, 50% reduction in growth, read-out: MIC
[21] = beagle dogs, single i.v. 1.4 mg/kg, 10-min slow bolus
[22] = beagle dogs, single i.v. 1.4 mg/kg, 10-min slow bolus, read-out: V (volume of distribution)
[23] = beagle dogs, single i.v. 1.4 mg/kg, 10-min slow bolus, read-out: t1/2 (converted)

Row | Compound | MIC ([3]; ATCC90028, 24 h) [µg/mL] | MIC ([3]; ATCC90028, 48 h) [µg/mL] | MIC ([4]; 24 h) [µg/mL] | MIC ([4]; 48 h) [µg/mL] | MIC ([5]; 24 h) [µg/mL] | MIC ([5]; 48 h) [µg/mL] | MIC ([6]; 24 h) [µg/mL] | MIC ([6]; 48 h) [µg/mL] | MIC ([8]; 24 h) [µg/mL] | MIC ([8]; 48 h) [µg/mL] | MIC ([9]; ATCC90874, 24 h) [µg/mL] | MIC ([9]; ATCC90874, 48 h) [µg/mL] | MEC [10] [µg/mL] | MEC [11] [µg/mL] | MEC [12] [µg/mL] | MEC [13] [µg/mL] | MEC [14] [µg/mL] | MEC [15] [µg/mL] | MEC [16] [µg/mL] | MEC values against all Aspergillus species tested [17] | further results
1 | CCCCCOc1ccc(-c2ccc(-c3ccc(C(=O)N[C@H]4C[C@@H](O)[C@@H](NCC[N+](C)(C)C)NC(=O)[C@@H]5[C@@H](O)[C@@H](C)CN5C(=O)[C@H]([C@@H](C)O)NC(=O)[C@H]([C@H](O)[C@@H](O)c5ccc(O)cc5)NC(=O)[C@@H]5C[C@@H](O)CN5C(=O)[C@H]([C@@H](C)O)NC4=O)cc3)cc2)cc1 [Compound 6] | 0.03 | 0.03 | 0.03 | 0.03 | 0.5 | 1 | 0.03 | 0.03 | 0.25 | 0.5 | ≤ 0.015 | ≤ 0.015 | ≤0.015 | ≤0.015 | ≤0.015 | ≤0.015 | ≤0.015 | 0.03 | 0.03 | below 0.03 μg/ml | reductions in fungal burden vs infected control (statistical significance) [1]: statistically significant (P < 0.01) reductions in fungal burden at all doses; Vd ([2]; beagle, 1.4 mg/kg): 0.874 L/kg; half-life ([2]; beagle, 1.4 mg/kg): 27.6 h; MIC [7, 19]: 0.25 µg/mL; MIC [7, 20]: 0.25 µg/mL
2 | CCCCCOc1ccc(-c2ccc(-c3ccc(C(=O)N[C@H]4C[C@@H](O)[C@@H](O)NC(=O)[C@@H]5[C@@H](O)[C@@H](C)CN5C(=O)[C@H]([C@@H](C)O)NC(=O)[C@H]([C@H](O)[C@@H](O)c5ccc(O)cc5)NC(=O)[C@@H]5C[C@@H](O)CN5C(=O)[C@H]([C@@H](C)O)NC4=O)cc3)cc2)cc1 [Anidulafungin, anidulafungin] ({pTerphenylCO(4''-OnC5H11)}-[Orn(4R-OH,5R-OH)]T[Hyp][hTyr(3S-OH,4S-OH)]T[Pro(3S-OH,4S-Me)]; lactam 1-C) | ≤ 0.015 | ≤ 0.015 | 0.03 (≈ 0.0263 µM) | 0.03 (≈ 0.0263 µM) | 1 (≈ 0.877 µM) | 2 (≈ 1.75 µM) | 0.03 (≈ 0.0263 µM) | 0.06 (≈ 0.0526 µM) | 0.5 (≈ 0.438 µM) | 0.5 (≈ 0.438 µM) | ≤ 0.015 | ≤ 0.015 | ≤0.015 | ≤0.015 | ≤0.015 | ≤0.015 | ≤0.015 | 0.03 | ≤0.015 | below 0.03 μg/ml | clearance [2, 21]: 0.783 mL/min/kg; Vd [2, 22]: 0.779 L/kg; half-life [2, 23]: 11.6 h; MIC ([7]; ATCC34134, 24 h): 0.125 µg/mL (≈ 0.11 µM); MIC ([7]; ATCC34134, 48 h): 0.125 µg/mL (≈ 0.11 µM)
3 | CCCCCOc1ccc(-c2ccc(-c3ccc(C(=O)N[C@H]4C[C@@H](O)[C@@H](OCC[N+](C)(C)C)NC(=O)[C@@H]5[C@@H](O)[C@@H](C)CN5C(=O)[C@H]([C@@H](C)O)NC(=O)[C@H]([C@H](O)[C@@H](O)c5ccc(O)cc5)NC(=O)[C@@H]5C[C@@H](O)CN5C(=O)[C@H]([C@@H](C)O)NC4=O)cc3)cc2)cc1 [CD101] ({pTerphenylCO(4''-OnC5H11)}-[Orn(4R-OH,5R-OCH2CH2NMe3+)]T[Hyp][hTyr(3S-OH,4S-OH)]T[Pro(3S-OH,4S-Me)]; lactam 1-C) | 0.03 | 0.03 | 0.03 | 0.03 | 0.5 | 2 | 0.03 | 0.03 | 0.5 | 1 | ≤ 0.015 | ≤ 0.015 | ≤0.015 | ≤0.015 | ≤0.015 | ≤0.015 | ≤0.015 | 0.03 | 0.03 | below 0.03 μg/ml | reductions in fungal burden vs infected control (statistical significance) [1]: statistically significant (P < 0.01) reductions in fungal burden at all doses; fungal burden relative to limit of detection ([1]; neutropenic CD-1 mice, 0.5, 1.5 or 4.5 mg/kg): below the limit of detection for at least one of the doses; clearance [2, 21]: 0.317 mL/min/kg; Vd [2, 22]: 1.36 L/kg; half-life [2, 23]: 53.1 h; MIC [7, 19]: 0.25 µg/mL; MIC [7, 20]: 0.25 µg/mL; half-life in clinical trials [18]: > 80 h
